Assay results as given in patent US5672715A, “Herbicidal substituted 3-aryl-pyrazoles” (Monsanto Company, priority 1995, dated 1997).

How the values were obtained:
Type in all cases: in vivo
Rape [1] = test: pre-emergence herbicide test; details: pre-emergence, 0.25 lb/A; read-out: % plant inhibition
Experimental: (§1) Topsoil was placed in an aluminum pan and compacted to a depth of 1.3 to 1.6 cm from the top of the pan. On the top of the soil was placed a predetermined number of seeds of each of several monocotyledonous and dicotyledonous annual plant species and/or vegetative propagules of various perennial plant species. The pan was then level filled with a cover layer of topsoil to which was added a known amount of active ingredient either prior to or after application of the cover layer. The active ingredient was dissolved or suspended in an organic solvent, e.g., acetone, or water as carrier for application to the cover layer. The pans were moved to a greenhouse bench where they were thereafter watered from below as needed to give adequate moisture for germination and growth. In some cases, an initial overhead irrigation of 1/4 inch of water was applied immediately after treatment.
(§2) Approximately 14 days after seeding and treating, the pans were observed and the results (% inhibition) were recorded.
(§3) The tables below summarize the results of the pre-emergence herbicidal activity tests of compounds of this invention tested with warm season plants (Tables 2a-2d) and cool season plants (Tables 3a and 3b). The herbicidal rating shown in these tables is the percent inhibition of each plant species. The plant species usually regarded as weeds are identified in the tables by single letter headings and crop species identified by two letter headings both headings being above the columns in accordance with the following legend: […]

Wheat [2] = test: pre-emergence herbicide test; details: Triticum aestivum, pre-emergence, 0.25 lb/A; read-out: % plant inhibition
Experimental: as §1, §2, §3

Common Chickweed [3] = test: pre-emergence herbicide test; details: pre-emergence, 0.25 lb/A; read-out: % plant inhibition
Experimental: as §1, §2, §3

Birdseye Speedwell [4] = test: pre-emergence herbicide test; details: pre-emergence, 0.25 lb/A; read-out: % plant inhibition
Experimental: as §1, §2, §3

Wild Oats [5] = test: pre-emergence herbicide test; details: Avena fatua, pre-emergence, 0.25 lb/A; read-out: % plant inhibition
Experimental: as §1, §2, §3

Blackgrass [6] = test: pre-emergence herbicide test; details: Alopecurus myosuroides, pre-emergence, 0.25 lb/A; read-out: % plant inhibition
Experimental: as §1, §2, §3

Bedstraw Catchweed [7] = test: pre-emergence herbicide test; details: Galium aparine, pre-emergence, 0.25 lb/A; read-out: % plant inhibition
Experimental: as §1, §2, §3

Green Foxtail [8] = test: pre-emergence herbicide test; details: Setaria viridis, pre-emergence; 0.25 lb/A; read-out: % plant inhibition
Experimental: as §1, §2, §3

Downy Brome [9] = test: pre-emergence herbicide test; details: Bromus tectorum, pre-emergence, 0.25 lb/A; read-out: % plant inhibition
Experimental: as §1, §2, §3

Soybean [10] = test: post-emergence herbicide test; details: Glycine max, post-emergence, 0.25 lb/A; read-out: % plant inhibition
Excerpt: (§4) Topsoil was placed in aluminum pans having holes in the bottom and compacted to a depth of 1.3 to 1.6 cm from the top of the pan. A predetermined number of seeds of each of several dicotyledonous and monocotyledonous annual plant species and/or vegetative propagules for the perennial plant species were placed on the soil and pressed into the soil surface. The seeds and/or vegetative propagules were covered with soil and leveled. The pans were then placed on a bench in the greenhouse and watered either from overheard irrigation or by subirrigation as needed. After the plants reach the desired age (two to three weeks), each pan, is removed individually to a spraying chamber and sprayed by means of an atomizer, operating at a spray pressure of 170.3 kPa […] at the application rates noted. In the spray solution was an amount of an emulsifying agent mixture to give a spray solution or suspension which contains about 0.4% by volume of the emulsifier. The spray solution or suspension contained a sufficient amount of the candidate chemical in order to give application rates of the active ingredient corresponding to those shown in Tables 4 and 5, while applying a total amount of solution or suspension equivalent to 1870 L/Ha (200 gallons/acre). […] The post-emergent herbicidal activity shown in these tables is the percent inhibition of each plant species. Testing with warm season and cool season plants is shown in tables 4a-4d and […], respectively.

Rape [11] = test: post-emergence herbicide test; details: post-emergence, 0.25 lb/A; read-out: % plant inhibition
Excerpt: as §4

Wheat [12] = test: post-emergence herbicide test; details: Triticum aestivum, post-emergence, 0.25 lb/A; read-out: % plant inhibition
Excerpt: as §4

Common Chickweed [13] = test: post-emergence herbicide test; details: post-emergence, 0.25 lb/A; read-out: % plant inhibition
Excerpt: as §4

Birdseye Speedwell [14] = test: post-emergence herbicide test; details: post-emergence, 0.25 lb/A; read-out: % plant inhibition
Excerpt: as §4

Wild Oats [15] = test: post-emergence herbicide test; details: Avena fatua, post-emergence, 0.25 lb/A; read-out: % plant inhibition
Excerpt: as §4

Giant Foxtail = test: post-emergence herbicide test; details: Setaria faberi, post-emergence, 0.25 lb/A; read-out: % plant inhibition
Excerpt: as §4

Barnyardgrass = test: post-emergence herbicide test; details: Echinochloa crus-galli, post-emergence, 0.25 lb/A; read-out: % plant inhibition
Excerpt: as §4

Blackgrass [16] = test: post-emergence herbicide test; details: Alopecurus myosuroides, post-emergence, 0.25 lb/A; read-out: % plant inhibition
Excerpt: as §4

Seedling Johnsongrass = test: post-emergence herbicide test; details: Sorghum halepense, post-emergence, 0.25 lb/A; read-out: % plant inhibition
Excerpt: as §4

Morning Glory = test: post-emergence herbicide test; details: Ipomoea, post-emergence, 0.25 lb/A; read-out: % plant inhibition
Excerpt: as §4

Corn = test: post-emergence herbicide test; details: Zea mays, post-emergence, 0.25 lb/A; read-out: % plant inhibition
Excerpt: as §4

Bedstraw Catchweed [17] = test: post-emergence herbicide test; details: Galium aparine, post-emergence, 0.25 lb/A; read-out: % plant inhibition
Excerpt: as §4

Green Foxtail [18] = test: post-emergence herbicide test; details: Setaria viridis, post-emergence, 0.25 lb/A; read-out: % plant inhibition
Excerpt: as §4

Velvetleaf [19] = test: post-emergence herbicide test; details: Abutilon theophrasti, post-emergence, 0.25 lb/A; read-out: % plant inhibition
Excerpt: as §4

Cocklebur = test: post-emergence herbicide test; details: Xanthium strumarium, post-emergence, 0.25 lb/A; read-out: % plant inhibition
Excerpt: as §4

Downy Brome [20] = test: post-emergence herbicide test; details: Bromus tectorum, post-emergence, 0.25 lb/A; read-out: % plant inhibition
Excerpt: as §4

Soybean [21] = test: pre-emergence herbicide test; details: 0.25 lb/A
Experimental: as §1, §2, §3

Velvetleaf [22] = test: pre-emergence herbicide test; details: Abutilon theophrasti, pre-emergence, 0.25 lb/A; read-out: % plant inhibition
Experimental: as §1, §2, §3

| SMILES | inhibition at 280.212 g/ha (Rape [1]) [%] | inhibition at 280.212 g/ha (Wheat [2]) [%] | inhibition at 280.212 g/ha (Common Chickweed [3]) [%] | inhibition at 280.212 g/ha (Birdseye Speedwell [4]) [%] | inhibition at 280.212 g/ha (Wild Oats [5]) [%] | inhibition at 280.212 g/ha (Blackgrass [6]) [%] | inhibition at 280.212 g/ha (Bedstraw Catchweed [7]) [%] | inhibition at 280.212 g/ha (Green Foxtail [8]) [%] | inhibition at 280.212 g/ha (Downy Brome [9]) [%] | inhibition at 280.212 g/ha (Soybean [10]) [%] | inhibition at 280.212 g/ha (Rape [11]) [%] | inhibition at 280.212 g/ha (Wheat [12]) [%] | inhibition at 280.212 g/ha (Common Chickweed [13]) [%] | inhibition at 280.212 g/ha (Birdseye Speedwell [14]) [%] | inhibition at 280.212 g/ha (Wild Oats [15]) [%] | inhibition at 280.212 g/ha (Giant Foxtail) [%] | inhibition at 280.212 g/ha (Barnyardgrass) [%] | inhibition at 280.212 g/ha (Blackgrass [16]) [%] | inhibition at 280.212 g/ha (Seedling Johnsongrass) [%] | inhibition at 280.212 g/ha (Morning Glory) [%] | further results |
| --- | --- | --- | --- | --- | --- | --- | --- | --- | --- | --- | --- | --- | --- | --- | --- | --- | --- | --- | --- | --- | --- |
| COCc1cc(-c2nn(C)c(C(F)(F)F)c2C)c(F)cc1Cl [Compound 11] | 15 | 0 | 25 | 95 | 20 | 60 | 75 | 100 | 10 | 20 | 5 | 6 | 10 | 60 | 5 | 0 | 0 | 15 | 5 | 25 | inhibition at 280.212 g/ha (Corn): 15%; inhibition at 280.212 g/ha (Bedstraw Catchweed [17]): 50%; inhibition at 280.212 g/ha (Green Foxtail [18]): 25%; inhibition at 280.212 g/ha (Velvetleaf [19]): 50%; inhibition at 280.212 g/ha (Cocklebur): 15%; inhibition at 280.212 g/ha (Downy Brome [20]): 10% |
| Cc1c(-c2cc(CO)c(Cl)cc2F)nn(C)c1C(F)(F)F [Compound 9, 2-Chloro-5-[1,4-dimethyl-5-(trifluoromethyl)-1H-pyrazol-3-yl]-4-fluorobenzenemethanol] | 30 | 0 | 90 | 90 | 5 | 50 | 20 | 100 | 5 | 60 | 20 | 13 | 15 | 35 | 25 | 10 | 25 | 20 | 20 | 45 | % plant inhibition (Soybean [21]): 0%; inhibition at 280.212 g/ha (Velvetleaf [22]): 98%; inhibition at 280.212 g/ha (Corn): 10%; inhibition at 280.212 g/ha (Bedstraw Catchweed [17]): 50%; inhibition at 280.212 g/ha (Green Foxtail [18]): 20%; inhibition at 280.212 g/ha (Velvetleaf [19]): 95%; inhibition at 280.212 g/ha (Cocklebur): 35%; inhibition at 280.212 g/ha (Downy Brome [20]): 25% |
| Cc1c(-c2cc(CBr)c(Cl)cc2F)nn(C)c1C(F)(F)F [Compound 10, 3-[5-(Bromomethyl)-4-chloro-2-fluorophenyl]-1,4-dimethyl-5-(trifluoromethyl)-1H-pyrazole] | 50 | 0 | 5 | 50 | 5 | 20 | 30 | 98 | 25 | 8 | 35 | 10 | 15 | 90 | 10 | 15 | 5 | 20 | 15 | 35 | inhibition at 280.212 g/ha (Corn): 3%; inhibition at 280.212 g/ha (Bedstraw Catchweed [17]): 25%; inhibition at 280.212 g/ha (Green Foxtail [18]): 50%; inhibition at 280.212 g/ha (Velvetleaf [19]): 90%; inhibition at 280.212 g/ha (Cocklebur): 55%; inhibition at 280.212 g/ha (Downy Brome [20]): 25% |
| CC(C)OC(=O)c1cc(-c2nn(C)c(C(F)(F)F)c2C=O)c(F)cc1Cl [Compound 12, 2-Chloro-4-fluoro-5-[4-formyl-1-methyl-5-(trifluoromethyl)-1H-pyrazol-3-yl]benzoic acid, 1-methylethyl ester] | 15 | 5 | 85 | 80 | 60 | 60 | 65 | 98 | 60 | 85 | 100 | 30 | 100 | 100 | 85 | 35 | 80 | 50 | 65 | 99 | inhibition at 280.212 g/ha (Corn): 15%; inhibition at 280.212 g/ha (Bedstraw Catchweed [17]): 95%; inhibition at 280.212 g/ha (Green Foxtail [18]): 90%; inhibition at 280.212 g/ha (Velvetleaf [19]): 99%; inhibition at 280.212 g/ha (Cocklebur): 98%; inhibition at 280.212 g/ha (Downy Brome [20]): 90% |
